Data: patent US8586505B2 (SDS Biotech K. K., priority 2009, dated 2013)

Experiments:
Type in all cases: in vivo
[1] = system: Pseudoperonospora cubensis; test: Test of examining control effect on Pseudoperonospora cubensis (potted cucumber plants); conditions: 96 h, 10% wettable powder adjusted to 125 ppm, 15 ml/pot sprayed on potted cucumber plants one day before spray inoculation, assessed after 1 day wet chamber and 3 days greenhouse, read-out: Determination of control effect (preventive value) on Pseudoperonospora cubensis
Method: (§1) Calculation of Preventive Value: Preventive value={(untreated lesion area rate−treated lesion area rate)/untreated lesion area rate}×100
(§2) Using the thus calculated preventive value, the control effect of each compound was determined in accordance with the following standards.
(§3) High control effect: 100%≧preventive value≧60%
(§4) Low control effect: 60%>preventive value≧0%
Using a spray gun, an agent solution prepared by adjusting a 10% wettable powder of each sample compound to 125 ppm (hereinafter referred to as a “sample agent solution”) was sprayed to potted cucumber plants (variety: Sagamihanjiro, 2.5 leave stage) in a concentration of 15 ml/pot. One day after the spraying, a conidial suspension of Pseudoperonospora cubensis (conidial concentration: 1.0×10^4 cells/ml) was applied to the plants by spray inoculation. After completion of the inoculation, the plants were left at 21° C. under wet chamber conditions for 1 day, and were then left in a greenhouse for 3 days, so that they were fully infected with the aforementioned disease. Thereafter, the disease level on each leaf was compared with that on an untreated leaf, and the control effect of each compound was determined in the same manner as in Example 3(1).

Sphaerotheca fuliginea = test: Test of examining control effect on Sphaerotheca fuliginea (potted cucumber plants); conditions: Podosphaera fuliginea, 336 h; 10% wettable powder adjusted to 125 ppm, 15 ml/pot sprayed on potted cucumber plants one day before spray inoculation; assessed after 14 days in greenhouse; read-out: Determination of control effect (preventive value) on Sphaerotheca fuliginea
Method: as §1, §2, §3, §4
Using a spray gun, an agent solution prepared by adjusting a 10% wettable powder of each sample compound to 125 ppm (hereinafter referred to as a “sample agent solution”) was sprayed to potted cucumber plants (variety: Sagamihanjiro, 2nd leave stage) in a concentration of 15 ml/pot. One day after the spraying, a conidial suspension of Sphaerotheca fuliginea (conidial concentration: 1.0×10^5 cells/ml) was applied to the plants by spray inoculation. The plants were left in a greenhouse for 14 days, so that they were fully infected with the aforementioned disease. Thereafter, the disease level on each leaf was compared with that on an untreated leaf, and the control effect of each compound was determined in the same manner as in Example 3(1).

Phytophthora infestans = test: whole plant or invertebrate; conditions: in Solanum lycopersicum, 96 h, read-out: Determination of control effect (preventive value)

| Compound | pest or weed control at 125 µg/mL [1] [%] | pest or weed control at 125 µg/mL (Sphaerotheca fuliginea) [%] | pest or weed control at 125 ppm (Phytophthora infestans) [%] |
| --- | --- | --- | --- |
| C(#Cc1ccc2ncccc2c1)CCNc1ncnc2ccccc12 [compound 190] | 60 to 100 | 0 to 60 | 0 to 60 |
| COCc1ccccc1C#CCCNc1ncnc(Cl)c1Cl [compound 365] | 60 to 100 | 60 to 100 | 60 to 100 |
| C(#Cc1ncccn1)CCNc1ncnc2sccc12 [compound 58] | 60 to 100 | 0 to 60 | 60 to 100 |
| Fc1cccc2c(NCCC#Cc3ccccc3C(F)(F)F)ncnc12 [compound 306] | 60 to 100 | 60 to 100 | 60 to 100 |
| CC(CC#Cc1ccc(Cl)cc1C(F)(F)F)Nc1ncnc(C(C)Cl)c1Cl (stereo not drawn) [compound 383] | 60 to 100 | 60 to 100 | 0 to 60 |
| O=C(O)c1ccc(C#CCCNc2ncnc3ccccc23)cc1 [compound 127] | 60 to 100 | 60 to 100 | 60 to 100 |
| Cc1ccccc1C#CCCNc1ncnc2sccc12 [compound 17] | 60 to 100 | 60 to 100 | 60 to 100 |
| C(#Cc1cccc2ncccc12)CCNc1ncnc2ccccc12 [compound 191] | 60 to 100 | 0 to 60 | 0 to 60 |
| COCc1ccccc1C#CCCNc1ncnc2ccc(-c3ccc(F)cc3)cc12 [compound 336] | 60 to 100 | 0 to 60 | 0 to 60 |
| Clc1cccc(C#CCCNc2ncnc3sccc23)c1 [compound 15] | 60 to 100 | 60 to 100 | 0 to 60 |
| C(#Cc1ccc2c(c1)CCO2)CCNc1ncnc2ccccc12 [compound 157] | 60 to 100 | 60 to 100 | 0 to 60 |
| FC(F)(F)c1ccccc1C#CCCNc1ncnc2cccc(Cl)c12 [compound 310] | 60 to 100 | 60 to 100 | 0 to 60 |
| C(#Cc1ccnc2ccccc12)CCNc1ncnc2ccccc12 [compound 189] | 60 to 100 | 60 to 100 | 0 to 60 |
| C(#Cc1ccccc1-c1ccccc1)CCNc1ncnc2ccccc12 [compound 114] | 60 to 100 | 60 to 100 | 0 to 60 |
| COCc1ccccc1C#CCCNc1ncnc2c(C)cccc12 [compound 325] | 60 to 100 | 60 to 100 | 60 to 100 |
| CSCc1ccccc1C#CCCNc1ncnc2ccccc12 [compound 152] | 60 to 100 | 0 to 60 | 0 to 60 |
| COCc1ccccc1C#CCCNc1ncnc2ccc(OC)cc12 [compound 329] | 60 to 100 | 60 to 100 | 60 to 100 |
| CS(=O)(=O)c1ncnc(NCCC#Cc2ccccc2C(F)(F)F)c1[N+](=O)[O-] [compound 369] | 0 to 60 | 0 to 60 | 0 to 60 |
| CC(CC#Cc1ccc(C(F)(C(F)(F)F)C(F)(F)F)cc1Cl)Nc1ncnc2ccccc12 (stereo not drawn) [compound 281] | 60 to 100 | 60 to 100 | 0 to 60 |
| CC(CC#Cc1ccc(Cl)cc1C(F)(F)F)Nc1ncnc2cc(F)ccc12 (stereo not drawn) [compound 344] | 60 to 100 | 60 to 100 | 0 to 60 |
| COc1ccc2nc(C#CCCNc3ncnc4sccc34)sc2c1 [compound 85] | 60 to 100 | 60 to 100 | 60 to 100 |
| C(#Cc1cccs1)CCNc1ncnc2ccccc12 [compound 204] | 60 to 100 | 60 to 100 | 60 to 100 |
| CN1C(=O)c2ccc(C#CCCNc3ncnc4sccc34)cc2C1=O [compound 84] | 60 to 100 | 0 to 60 | 60 to 100 |

| Compound | pest or weed control at 125 µg/mL [1] [%] | pest or weed control at 125 µg/mL (Sphaerotheca fuliginea) [%] | pest or weed control at 125 ppm (Phytophthora infestans) [%] |
| --- | --- | --- | --- |
| C=Cc1ccc(C#CCCNc2ncnc3ccccc23)cc1 [compound 110] | 60 to 100 | 60 to 100 | 60 to 100 |
| CC(CC#Cc1ccc(Cl)cc1C(F)(F)F)Nc1ncnc2c(Cl)cccc12 (stereo not drawn) [compound 349] | 60 to 100 | 60 to 100 | 0 to 60 |
| COCc1ccccc1C#CCCNc1ncnc2cc(F)c(F)cc12 [compound 319] | 60 to 100 | 60 to 100 | 60 to 100 |
| Clc1ccccc1C#CCCNc1ncnc2sccc12 [compound 14] | 60 to 100 | 60 to 100 | 0 to 60 |
| CC(CC#Cc1ccc(Cl)c(C(F)(F)F)c1)Nc1ncnc2sccc12 (stereo not drawn) [compound 254] | 60 to 100 | 0 to 60 | 0 to 60 |
| CC(CC#Cc1ccccc1CO)Nc1ncnc2sccc12 (stereo not drawn) [compound 243] | 60 to 100 | 60 to 100 | 60 to 100 |
| CC(CC#Cc1ncccc1C(F)(F)F)Nc1ncnc2sccc12 (stereo not drawn) [compound 264] | 60 to 100 | 60 to 100 | 60 to 100 |
| COc1cccc2c(NC(C)CC#Cc3ccc(F)cc3C(F)(F)F)ncnc12 (stereo not drawn) [compound 353] | 60 to 100 | 60 to 100 | 0 to 60 |
| COc1nc(C#CCCNc2ncnc3ccccc23)cs1 [compound 212] | 60 to 100 | 60 to 100 | 60 to 100 |
| CCc1ccccc1C#CCCNc1ncnc2ccccc12 [compound 103] | 60 to 100 | 60 to 100 | 60 to 100 |
| CC(CC#Cc1ccc(F)cc1)Nc1ncnc2ccccc12 (stereo not drawn) [compound 271] | 60 to 100 | 60 to 100 | 60 to 100 |
| COCc1ccc(F)cc1C#CCCNc1ncnc2ccccc12 [compound 142] | 60 to 100 | 60 to 100 | 60 to 100 |
| C=CC(CC#Cc1ccccc1)Nc1ncnc2ccccc12 (stereo not drawn) [compound 296] | 60 to 100 | 60 to 100 | 60 to 100 |
| Fc1ccc(C#CCCNc2ncnc3sccc23)cc1 [compound 13] | 60 to 100 | 60 to 100 | 0 to 60 |
| FC(F)(F)c1ccccc1C#CCCNc1ncnc2cc3ccccc3cc12 [compound 342] | 60 to 100 | 0 to 60 | 0 to 60 |
| COCc1cc(C)ccc1C#CCCNc1ncnc2ccccc12 [compound 145] | 60 to 100 | 60 to 100 | 60 to 100 |
| C(#CC1CC1)CCNc1ncnc2ccccc12 [compound 90] | 60 to 100 | 60 to 100 | 0 to 60 |
| Clc1ccccc1C#CCCNc1ncnc2ccccc12 [compound 97] | 60 to 100 | 60 to 100 | 60 to 100 |
| COCc1cc(C)ccc1C#CCCNc1ncnc(C)c1Cl [compound 361] | 60 to 100 | 60 to 100 | 60 to 100 |
| COc1cc(OC)nc(C#CCCNc2ncnc3sccc23)n1 [compound 60] | 60 to 100 | 0 to 60 | 60 to 100 |
| C(#Cc1csc(N2CCCCC2)n1)CCNc1ncnc2ccccc12 [compound 228] | 60 to 100 | 0 to 60 | 0 to 60 |
| C(#Cc1cscn1)CCNc1ncnc2ccccc12 [compound 210] | 60 to 100 | 60 to 100 | 60 to 100 |
| COCc1ccccc1C#CCCNc1ncnc2ccc(F)cc12 [compound 317] | 60 to 100 | 60 to 100 | 60 to 100 |
